Test results reported in US11369598B2, “Treatment of T-cell mediated diseases” (Ampio Pharmaceuticals, Inc., priority 2003, dated 2022).
Read-outs that look alike come from different tables or passages of the source.

How the values were obtained:
[1] = system: Rap1; assay: Hypromatrix Array phosphorylation, TRiPS cell extracts; type: cell-based, human; parameters: key: 0 (negative); + to ++++ (positive); + to ++++ (positive); + to ++++ (positive); + to ++++ (positive); details: day 18 TRiPS cells + CD3/CD28 beads, 30 minutes at 37° C.; 0.5 mM DA-DKP or 1:500 dilution of HC 2626
Method: (§1) The mechanism of action of DA-DKP and HC 2626 (containing MR-DKP) was investigated. […] After the incubation, the cells were lysed in Cell-Lytic Mammalian Cell Extraction Reagent (Sigma).
(§2) The cell extracts were then separately incubated with duplicate Hypromatrix Arrays for 2 hours at room temperature, followed by two washes following the manufacturer's (Hypromatrix) protocol. The Hypromatrix Array is a nylon membrane blotted with antibodies to the transcription factors listed in Table 1 (custom manufactured by Hypromatrix). An antibody cocktail specific for phosphorylated-tyrosine, phosphorylated-serine and phosphorylated-threonine (Zymed) was added, incubated for 1 hour. Then, an anti-immunoglobulin antibody labeled with biotin was added. After washing the anti-immunoglobulin-biotin away, streptavidin-peroxidase was added, and the arrays given a final wash before adding a peroxidase-reactive luminescent substrate.

[2] = system: CBP; assay: as above; type: cell-based, human; parameters: key: 0 (negative); + to ++++ (positive); + to ++++ (positive); + to ++++ (positive); + to ++++ (positive); details: day 18 TRiPS cells + CD3/CD28 beads, 30 minutes at 37° C.; 0.5 mM DA-DKP or 1:500 dilution of HC 2626
Method: as §1, §2

[3] = system: p38 MAPK; assay: as above; type: cell-based, human; parameters: key: 0 (negative); + to ++++ (positive); + to ++++ (positive); + to ++++ (positive); + to ++++ (positive); details: day 18 TRiPS cells + CD3/CD28 beads, 30 minutes at 37° C.; 0.5 mM DA-DKP or 1:500 dilution of HC 2626
Method: as §1, §2

[4] = system: fyn; assay: as above; type: cell-based, human; parameters: key: 0 (negative); + to ++++ (positive); + to ++++ (positive); + to ++++ (positive); + to ++++ (positive); details: day 18 TRiPS cells + CD3/CD28 beads, 30 minutes at 37° C.; 0.5 mM DA-DKP or 1:500 dilution of HC 2626
Method: as §1, §2

[5] = system: pI3 kinase/p85; assay: as above; type: cell-based, human; parameters: key: 0 (negative); + to ++++ (positive); + to ++++ (positive); + to ++++ (positive); + to ++++ (positive); details: day 18 TRiPS cells + CD3/CD28 beads, 30 minutes at 37° C.; 0.5 mM DA-DKP or 1:500 dilution of HC 2626
Method: as §1, §2

[6] = system: Akt ½; assay: as above; type: cell-based, human; parameters: key: 0 (negative); + to ++++ (positive); + to ++++ (positive); + to ++++ (positive); + to ++++ (positive); details: day 18 TRiPS cells + CD3/CD28 beads, 30 minutes at 37° C.; 0.5 mM DA-DKP or 1:500 dilution of HC 2626
Method: as §1, §2

[7] = system: csk; assay: as above; type: cell-based, human; parameters: key: 0 (negative); + to ++++ (positive); + to ++++ (positive); + to ++++ (positive); + to ++++ (positive); details: day 18 TRiPS cells + CD3/CD28 beads, 30 minutes at 37° C.; 0.5 mM DA-DKP or 1:500 dilution of HC 2626
Method: as §1, §2

[8] = system: IκB-α; assay: as above; type: cell-based, human; parameters: key: 0 (negative); + to ++++ (positive); + to ++++ (positive); + to ++++ (positive); + to ++++ (positive); details: day 18 TRiPS cells + CD3/CD28 beads, 30 minutes at 37° C.; 0.5 mM DA-DKP or 1:500 dilution of HC 2626
Method: as §1, §2

[9] = system: c-jun; assay: as above; type: cell-based, human; parameters: key: 0 (negative); + to ++++ (positive); + to ++++ (positive); + to ++++ (positive); + to ++++ (positive); details: day 18 TRiPS cells + CD3/CD28 beads, 30 minutes at 37° C.; 0.5 mM DA-DKP or 1:500 dilution of HC 2626
Method: as §1, §2

[10] = system: ERK1; assay: as above; type: cell-based, human; parameters: key to ERK1 phosphorylation score: 0 (negative); + to ++++ (positive); + to ++++ (positive); + to ++++ (positive); + to ++++ (positive); details: 30 minutes at 37° C., 0.5 mM DA-DKP or 1:500 dilution of HC 2626
Method: as §1, §2

[11] = system: TriPS cells
[12] = 12 days after stimulation with anti-CD3 OKT3 antibody, 0.5 mM DA-DKP

Substance: Asp-Ala diketopiperazine [DA-DKP]
- Rap1 phosphorylation score [1]: ++
- CBP phosphorylation score [2]: ++
- p38 MAPK phosphorylation score [3]: +++
- fyn phosphorylation score [4]: +
- pI3 kinase/p85 phosphorylation score [5]: +
- Akt ½ phosphorylation score [6]: +++
- csk phosphorylation score [7]: +
- IκB-α phosphorylation score [8]: +
- c-jun phosphorylation score [9]: +
- ERK1 phosphorylation score ([10]; day 18 TRiPS cells + CD3/CD28 beads): +
- cytokine transcriptional factor activation (ERK1/2) ([10]; day 18 TRiPS cells, CD3/CD28 beads): inhibited
- secretion of IL-16 from TriPS cells (FIG. 2) [11, 12]: decreased
- secretion of TNFα from TriPS cells (FIG. 2) [11, 12]: decreased
- release of pre-formed cytokines ([11]; TRiPS cells): inhibited
- effect on TNFα secretion from TriPS cells (FIG. 4) ([11]; early in the stimulation cycle): inhibitory
- effect on TNFα secretion from TriPS cells (FIG. 4) ([11]; later in the cycle (day 14)): stimulatory
